{"source": "patent US7786172B2", "about": "(priority 2002, dated 2010)", "key": {"[1]": {"assay": "Example 3: pharmacokinetics of 4-hydroxy tamoxifen gel in healthy premenopausal women", "type": "in vivo, human", "description": "Each participant applied the gel daily for the duration of two menstrual cycles.\nAt the end of a menstrual cycle, each patient received a single dose, after which serial blood samples were collected at 0, 0.5, 1, 1.5, 2, 3, 4, 6, 12, 18, 24, 36, 48, and 72 hours.\nOn the first day of the following menstruation, treatment, which consisted of daily application of the gel over two menstrual cycles, began. Blood samples were collected 24 hours following the morning application of gel on days 7, 20 and 25 of the first and second cycles. On the last day of administration, day 25 of the second menstrual cycle, serial blood samples were collected prior to application and at 0.5, 1, 1.5, 2, 3, 4, 6, 12, 18, 24, 36, 48, and 72 hours after application of the gel."}, "Skin penetration": {"assay": "Skin penetration", "conditions": "without assistance from penetration enhancers"}, "[2]": {"assay": "Example 1: percutaneous [3H]-4-hydroxy tamoxifen delivery in breast cancer patients (tissue, blood, urine radioactivity)", "description": "The patients received [^3H]-labeled drug applied directly on the affected breasts at specified intervals ranging from 12 hours to 7 days before surgery to excise diseased tissue. Breast tissue from three regions: the tumor, tissue immediately surrounding the tumor, and normal tissue, was excised and immediately frozen in liquid nitrogen. Additionally, plasma and urine samples were obtained at scheduled intervals and frozen until analysis."}, "rat liver": {"test_system": "rat liver", "conditions": "in vivo; cited from earlier work"}, "mastalgia [3]": {"test_system": "mastalgia", "assay": "Example 4: efficacy of percutaneous 4-hydroxy tamoxifen in mastalgia", "type": "in vivo, human", "from_the_text": "All patients had normal mammograms within the previous 6 months, and utilized contraception throughout the study and 3 months preceding it.\nThe primary criteria considered were the number of painful days per month and the mean pain severity during the last 10 days of the menstrual cycle. Assessments of pain were made by patient self-evaluation. Secondary criteria included clinical assessment by the physician of breast tenderness, nodularity, breast size, local warmth, and breast circumference. Any side effects were recorded.\nDaily self-evaluation of pain continued as in the earlier stage."}, "mastalgia [4]": {"test_system": "mastalgia", "conditions": "cited from earlier work; for side effects: cyclical mastalgia treatment, nausea, vomiting, dizziness, headache, acne, sweating, amenorrhea, weight gain"}}, "note": "Where two headings read alike, the source gives them in different places."}
{"compound": "CC/C(=C(\\c1ccc(O)cc1)c1ccc(OCCN(C)C)cc1)c1ccccc1", "note": "[4-hydroxy tamoxifen, 1-[4-(2-N-dimethylaminoethoxy)phenyl]-1-(4-hydroxyphenyl)-2-phenylbut-1-(Z)-ene]", "values": [{"measurement": "plasma concentrations after the last gel application", "setting": "[1]; 72 hours after the last gel application", "result": "remained detectable"}, {"measurement": "Plasma concentration of 4-hydroxy tamoxifen, Mean ± SD (Range)", "setting": "[1]; +8 days after last application, 0.5 mg/day, gel 20 mg/100 g", "result": "<LOQ"}, {"measurement": "Plasma concentration of 4-hydroxy tamoxifen, Mean ± SD (Range)", "setting": "[1]; +8 days after last application, 1 mg/day, gel 57 mg/100 g", "result": "(0-14.8) pg/mL"}, {"measurement": "Plasma concentration of 4-hydroxy tamoxifen, Mean ± SD (Range)", "setting": "[1]; +12 days after last application, 0.5 mg/day, gel 20 mg/100 g", "result": "≤ 9.09", "unit": "pg/mL"}, {"measurement": "Plasma concentration of 4-hydroxy tamoxifen, Mean ± SD (Range)", "setting": "[1]; +12 days after last application, 2 mg/day, gel 57 mg/100 g", "result": "(0-30.4) pg/mL"}, {"measurement": "Plasma concentration of 4-hydroxy tamoxifen, Mean ± SD (Range)", "setting": "[1]; +20 days after last application, 0.5 mg/day, gel 20 mg/100 g", "result": 0, "unit": "pg/mL"}, {"measurement": "Plasma concentration of 4-hydroxy tamoxifen, Mean ± SD (Range)", "setting": "[1]; +20 days after last application, 1 mg/day, gel 20 mg/100 g", "result": "<LOQ"}, {"measurement": "Plasma concentration of 4-hydroxy tamoxifen, Mean ± SD (Range)", "setting": "[1]; First cycle, Day 1, 0 hr, 0.5 mg/day, gel 20 mg/100 g", "result": "(0-17.2) pg/mL"}, {"measurement": "Plasma concentration of 4-hydroxy tamoxifen, Mean ± SD (Range)", "setting": "[1]; First cycle, Day 1, 0 hr, 1 mg/day, gel 20 mg/100 g", "result": "(0-13.9) pg/mL"}, {"measurement": "Plasma concentration of 4-hydroxy tamoxifen, Mean ± SD (Range)", "setting": "[1]; First cycle, Day 1, 0 hr, 1 mg/day, gel 57 mg/100 g", "result": "(0-9.5) pg/mL"}, {"measurement": "Plasma concentration of 4-hydroxy tamoxifen, Mean ± SD (Range)", "setting": "[1]; First cycle, Day 1, 0 hr, 2 mg/day, gel 57 mg/100 g", "result": "(0-0) pg/mL"}, {"measurement": "plasma concentrations after a single dose", "setting": "[1]; single 0.5 mg dose, gel", "result": "did not produce detectable plasma concentrations"}, {"measurement": "skin penetration", "setting": "Skin penetration", "result": "poorly penetrates the skin"}, {"measurement": "peak urinary elimination compared to percutaneous tamoxifen", "setting": "[2]; percutaneous administration", "result": "later time"}, {"measurement": "metabolism in cytosolic and nuclear fractions of breast tissue", "setting": "[2]; percutaneous application", "result": "remained unmetabolized except for limited isomerization from the trans to the cis form"}, {"measurement": "rat liver carcinogenicity", "setting": "rat liver", "result": "not"}, {"measurement": "reduction of mean number of days with pain", "setting": "mastalgia [3]; 1.5 mg/day", "result": "more than 50%"}, {"measurement": "reduction of mean pain intensity", "setting": "mastalgia [3]; 1.5 mg/day", "result": "more than 50%"}, {"measurement": "Mean Number of Days of Pain Level Greater than 20", "setting": "mastalgia [3]; 1 dose/breast, 0.5 mg/day, placebo 8.1 +/− 4.2", "result": "9.3 ± 5.2", "unit": "days"}, {"measurement": "Mean Pain Intensity During the Last 10 Days of the Menstrual Cycle", "setting": "mastalgia [3]; 1 dose/breast, 0.5 mg/day, placebo 34 +/− 25", "result": "38 +/− 25 /100"}, {"measurement": "Mean Number of Days of Pain Level Greater than 20", "setting": "mastalgia [3]; 2 doses/breast, 1.0 mg/day", "result": "8.2 ± 5.5", "unit": "days"}, {"measurement": "Mean Pain Intensity During the Last 10 Days of the Menstrual Cycle", "setting": "mastalgia [3]; 2 doses/breast, 1.0 mg/day", "result": "29 +/− 23 /100"}, {"measurement": "Mean Number of Days of Pain Level Greater than 20", "setting": "mastalgia [3]; 3 doses/breast, 1.5 mg/day", "result": "3.6 ± 5.2", "unit": "days"}, {"measurement": "Mean Pain Intensity During the Last 10 Days of the Menstrual Cycle", "setting": "mastalgia [3]; 3 doses/breast, 1.5 mg/day", "result": "15 +/− 19 /100"}, {"measurement": "Mean Number of Days of Pain Level Greater than 20", "setting": "mastalgia [3]; 4 doses/breast, 2.0 mg/day", "result": "4.7 ± 4.4", "unit": "days"}, {"measurement": "Mean Pain Intensity During the Last 10 Days of the Menstrual Cycle", "setting": "mastalgia [3]; 4 doses/breast, 2.0 mg/day", "result": "17 +/− 19 /100"}]}
{"compound": "CCC(=C(c1ccc(O)cc1)c1ccc(O)cc1)c1ccccc1", "note": "[Bisphenol]", "values": [{"measurement": "% Metabolites in Breast Tissue", "setting": "[2]; 12 hr after percutaneous trans-[3H]-4-hydroxy tamoxifen to the affected breast", "result": 1, "unit": "%"}, {"measurement": "share of radioactivity in blood", "setting": "[2]; 24 hours after percutaneous administration of [3H]-4-hydroxy tamoxifen", "result": 11, "unit": "%"}, {"measurement": "% Metabolites in Breast Tissue", "setting": "[2]; 24 hr after percutaneous trans-[3H]-4-hydroxy tamoxifen to the affected breast", "result": 2, "unit": "%"}, {"measurement": "% Metabolites in Breast Tissue", "setting": "[2]; 36 hr after percutaneous trans-[3H]-4-hydroxy tamoxifen to the affected breast", "result": 3, "unit": "%"}, {"measurement": "% Metabolites in Breast Tissue", "setting": "[2]; Day 4 after percutaneous trans-[3H]-4-hydroxy tamoxifen to the affected breast", "result": 8, "unit": "%"}, {"measurement": "% Metabolites in Breast Tissue", "setting": "[2]; Day 7 after percutaneous trans-[3H]-4-hydroxy tamoxifen to the affected breast", "result": 8, "unit": "%"}]}
{"compound": "CC/C(=C(\\c1ccccc1)c1ccc(OCCN(C)C)cc1)c1ccccc1", "note": "[[^3H]-tamoxifen, reference compound]", "values": [{"measurement": "plateau of radioactivity in blood", "setting": "[2]; percutaneous application", "result": 2, "unit": "days"}]}
{"compound": "CC(C)C[C@H]1C(=O)N2CCC[C@H]2[C@]2(O)O[C@](NC(=O)[C@@H]3C=C4c5cccc6[nH]c(Br)c(c56)C[C@H]4N(C)C3)(C(C)C)C(=O)N12", "note": "[bromocriptine]", "values": [{"measurement": "side effects", "setting": "mastalgia [4]", "result": "significant unwanted side effects"}]}
{"compound": "C#C[C@]1(O)CC[C@H]2[C@@H]3CCC4=Cc5oncc5C[C@]4(C)[C@H]3CC[C@@]21C", "note": "[danazol]", "values": [{"measurement": "side effects", "setting": "mastalgia [4]", "result": "significant unwanted side effects"}, {"measurement": "efficacy at relieving cyclical mastalgia", "setting": "mastalgia [4]; human, in vivo", "result": "some efficacy"}]}
{"compound": "CC/C(=C(\\c1ccccc1)c1ccc(OCCN(C)C)cc1)c1ccccc1", "note": "[tamoxifen]", "values": [{"measurement": "side effects reported by mastalgia patients", "setting": "mastalgia [4]; oral tamoxifen", "result": "hot flashes, vaginal discharge, depression, amenorrhea, and nausea"}, {"measurement": "patients with reduced pain", "setting": "mastalgia [4]; orally administered, patients with moderate to severe mastalgia", "result": "71-90%"}, {"measurement": "effective at reducing pain", "setting": "mastalgia [4]; patients with cyclical mastalgia", "result": 94, "unit": "%"}, {"measurement": "effective at reducing pain", "setting": "mastalgia [4]; patients with non-cyclical mastalgia", "result": 56, "unit": "%"}, {"measurement": "retention in the breast", "setting": "[2]; percutaneous application of [3H]-labeled drug to the affected breast", "result": "shorter and far weaker"}]}
